pKi: −log10 of the molar value. Where a name gives a salt, the structure may show the parent alone.
What was measured:
[1] = tested on: intraocular pressure; test: Effect of topically administered compounds on intraocular pressure of rabbits; type: in vivo, New Zealand rabbits; settings: 0.3% soln., 0.1 ml topical
Method: The intraocular pressure lowering effects of the compounds were evaluated in unanesthetized male albino, New Zealand rabbits weighing 2.0 to 2.5 kg. The rabbits were placed in Plas Labs restraining devices for the duration of the experiment. Intraocular pressure (IOP) was measured with a Bausch and Lomb Applamatic Tonometer and recorded as the average of three individual readings at each time point in the experiment. Baseline IOP values were established at three time points separated by 30 minutes. Each compound or vehicle was applied topically to the cornea in a volume of 0.1 ml to one eye in each six rabbits. The contralateral eye was untreated. IOP was recorded at 5, 15, 30, 60 and 90 minutes after dosing.

[2] = molecular target: T1, alpha-1-receptor (Rattus norvegicus, UniProt P15823); test: Radioligand binding, alpha-1 adrenoceptor, rat liver homogenates, [^3 H]-prazosin
T1 construct: rat liver homogenates; from tissue; host or cells: rat liver homogenates
T1 sequence (P15823 1-515): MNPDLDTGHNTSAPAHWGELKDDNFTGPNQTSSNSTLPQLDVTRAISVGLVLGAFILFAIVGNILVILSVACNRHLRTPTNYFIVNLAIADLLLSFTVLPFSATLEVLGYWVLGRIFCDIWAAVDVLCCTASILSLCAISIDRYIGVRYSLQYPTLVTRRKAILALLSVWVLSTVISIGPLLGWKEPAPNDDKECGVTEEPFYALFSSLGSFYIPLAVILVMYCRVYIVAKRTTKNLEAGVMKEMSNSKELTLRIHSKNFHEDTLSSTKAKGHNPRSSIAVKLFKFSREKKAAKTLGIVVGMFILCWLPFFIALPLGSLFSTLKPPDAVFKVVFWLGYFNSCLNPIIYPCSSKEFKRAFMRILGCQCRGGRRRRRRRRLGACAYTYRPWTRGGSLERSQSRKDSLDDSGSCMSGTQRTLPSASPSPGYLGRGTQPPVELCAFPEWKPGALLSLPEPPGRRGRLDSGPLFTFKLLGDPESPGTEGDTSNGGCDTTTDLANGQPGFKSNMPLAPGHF
Method: (§1) The compounds were assessed for alpha-adrenergic receptor subtype selectivity by use of radioligand binding techniques as described previously (DeBernardis et.al. J. Med. Chem. 28, 1398 (1985)).

[3] = molecular target: alpha-2-receptor; test: Radioligand binding, alpha-2 adrenoceptor, rat cerebral cortices, [^3 H]-rauwolscine; settings: for pKi: rat cerebral cortices, [^3 H]-rauwolscine; for alpha-2 - Selectivity Ki alpha-1/Ki alpha 2: ratio of Ki alpha-1 to Ki alpha-2
Method: as §1

Row | SMILES | % Change in Intraocular Pressure After Treatment Compared to Untreated Eye ([1]; 5 minutes) | % Change in Intraocular Pressure After Treatment Compared to Untreated Eye ([1]; 15 minutes) | % Change in Intraocular Pressure After Treatment Compared to Untreated Eye ([1]; 30 minutes) | % Change in Intraocular Pressure After Treatment Compared to Untreated Eye ([1]; 60 minutes) | % Change in Intraocular Pressure After Treatment Compared to Untreated Eye ([1]; 90 minutes) | pKi [2] | pKi [3] | alpha-2 - Selectivity Ki alpha-1/Ki alpha 2 [3]
1 | CN(CCc1ccccc1)CC1CCCc2cc(O)ccc21 (centres unmarked) [11 (HCl salt)] | -38% | -55% | -54% | -44% | -20% | 6.60 | 8.77 | 149
2 | Fc1ccc2c(c1)CCCC2CN1CCC(c2cccs2)C1 (centres unmarked) [Example 149, 6-Fluoro-1-(3-(2-thienyl)pyrrolidino-1-methyl) tetralin methanesulfonate] |  |  |  |  |  | 6.66 | 8.31 | 45
3 | CN(C)c1ccc2c(c1)CCCC2CN1CCC(c2ccccc2)C1 (centres unmarked) [Example 188, 6-(N-N'-dimethylamino)-1-(3-phenylpyrrolidino-1-methyl)tetralin dihydrochloride] |  |  |  |  |  | 6.93 | 9.30 | 236
